In the supplement of paper PMC4862054:

Assays:
Conditions in all cases: incubation time: 72 h
[1] = tested on: MFM-223; experiment: normalised response (% of control), CellTox Green; higher = less cell death (100 = DMSO, 0 = benzethonium chloride kill control)
Outline: (§1)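 Each value is the plate-normalised signal at one concentration of the series. Breast cancer cell lines (20 µl suspension) were incubated 72 h in 384-well plates with compound at 5 concentrations in 10-fold steps over a compound-specific 10,000-fold range. CellTox Green and then CellTiter-Glo were read, and each plate was scaled to 0.1 % DMSO (100) and a positive kill control (0).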

[2] = tested on: CAL-148; experiment: as above
Outline: as §1

[3] = tested on: MDA-MB-436; experiment: as above
Outline: as §1

[4] = tested on: MDA-MB-453; experiment: as above
Outline: as §1

[5] = tested on: BT-474; experiment: as above
Outline: as §1

[6] = tested on: MDA-MB-231; experiment: as above
Outline: as §1

[7] = tested on: DU-4475; experiment: as above
Outline: as §1

[8] = tested on: HCC1599; experiment: as above
Outline: as §1

[9] = tested on: MCF-10A; experiment: as above
Outline: as §1

[10] = tested on: CAL-85-1; experiment: as above
Outline: as §1

[11] = tested on: CAL-51; experiment: as above
Outline: as §1

[12] = tested on: HDQ-P1; experiment: as above
Outline: as §1

[13] = tested on: HCC1143; experiment: as above
Outline: as §1

[14] = tested on: Hs578T; experiment: as above
Outline: as §1

[15] = tested on: HCC1937; experiment: as above
Outline: as §1

[16] = tested on: BT-549; experiment: as above
Outline: as §1

[17] = tested on: CAL-120; experiment: as above
Outline: as §1

[18] = tested on: MDA-MB-468; experiment: as above
Outline: as §1

[19] = tested on: MFM-223; experiment: normalised response (% of control), CellTiter-Glo; higher = more viable cells (100 = DMSO, 0 = benzethonium chloride kill control)
Outline: as §1

[20] = tested on: CAL-148; experiment: as above
Outline: as §1

[21] = tested on: MDA-MB-436; experiment: as above
Outline: as §1

[22] = tested on: MDA-MB-453; experiment: as above
Outline: as §1

[23] = tested on: BT-474; experiment: as above
Outline: as §1

[24] = tested on: MDA-MB-231; experiment: as above
Outline: as §1

[25] = tested on: DU-4475; experiment: as above
Outline: as §1

[26] = tested on: HCC1599; experiment: as above
Outline: as §1

[27] = tested on: MCF-10A; experiment: as above
Outline: as §1

[28] = tested on: CAL-85-1; experiment: as above
Outline: as §1

[29] = tested on: CAL-51; experiment: as above
Outline: as §1

[30] = tested on: HDQ-P1; experiment: as above
Outline: as §1

[31] = tested on: HCC1143; experiment: as above
Outline: as §1

[32] = tested on: SK-BR-3; experiment: as above
Outline: as §1

[33] = tested on: Hs578T; experiment: as above
Outline: as §1

[34] = tested on: HCC1937; experiment: as above
Outline: as §1

[35] = tested on: BT-549; experiment: as above
Outline: as §1

[36] = tested on: CAL-120; experiment: as above
Outline: as §1

[37] = tested on: MDA-MB-468; experiment: as above
Outline: as §1

CC/C(=C(\c1ccc(O)cc1)c1ccc(OCCN(C)C)cc1)c1ccccc1 [4-hydroxytamoxifen] (1000 nM)
normalised response [1]: 95.9% | normalised response [2]: 57.6% | normalised response [3]: 93.6% | normalised response [4]: 111% | normalised response [5]: 97.7% | normalised response [6]: 108% | normalised response [7]: 105% | normalised response [8]: 95.8% | normalised response [9]: 103% | normalised response [10]: 120% | normalised response [11]: 108% | normalised response [12]: 97.3% | normalised response [13]: 88.3% | normalised response [14]: 97.2% | normalised response [15]: 86.6% | normalised response [16]: 114% | normalised response [17]: 108% | normalised response [18]: 128% | normalised response [19]: 95.6% | normalised response [20]: 102% | normalised response [21]: 101% | normalised response [22]: 102% | normalised response [23]: 101% | normalised response [24]: 97% | normalised response [25]: 98.5% | normalised response [26]: 105% | normalised response [27]: 98.8% | normalised response [28]: 97.2% | normalised response [29]: 102% | normalised response [30]: 98.8% | normalised response [31]: 98.9% | normalised response [32]: 99.2% | normalised response [33]: 107% | normalised response [34]: 93.9% | normalised response [35]: 93.6% | normalised response [36]: 92.5% | normalised response [37]: 91.6%

O=C(Nc1c[nH]nc1-c1nc2ccc(CN3CCOCC3)cc2[nH]1)NC1CC1 [AT9283] (100 nM)
normalised response [1]: 103% | normalised response [2]: 20.3% | normalised response [3]: 86.7% | normalised response [4]: 100% | normalised response [5]: 103% | normalised response [6]: 14.5% | normalised response [7]: 97.6% | normalised response [8]: 110% | normalised response [9]: 70.3% | normalised response [10]: 84.6% | normalised response [11]: 71.7% | normalised response [12]: 99.6% | normalised response [13]: 101% | normalised response [14]: 94.9% | normalised response [15]: 85% | normalised response [16]: 121% | normalised response [17]: 84.9% | normalised response [18]: 70.7% | normalised response [19]: 89.2% | normalised response [20]: 46.6% | normalised response [21]: 99% | normalised response [22]: 141% | normalised response [23]: 73.8% | normalised response [24]: 78.8% | normalised response [25]: 88.9% | normalised response [26]: 102% | normalised response [27]: 71.8% | normalised response [28]: 105% | normalised response [29]: 69% | normalised response [30]: 96.9% | normalised response [31]: 84.8% | normalised response [32]: 86.4% | normalised response [33]: 88.8% | normalised response [34]: 93.8% | normalised response [35]: 82.1% | normalised response [36]: 85% | normalised response [37]: 29.7%

CC(=O)OC[C@H]1O[C@@H]([S-])[C@H](OC(C)=O)[C@@H](OC(C)=O)[C@@H]1OC(C)=O.CCP(CC)CC.[Au+] [Auranofin] (250 nM)
normalised response [1]: 98.4% | normalised response [2]: 107% | normalised response [3]: 109% | normalised response [4]: 105% | normalised response [5]: 95.5% | normalised response [6]: 125% | normalised response [7]: 110% | normalised response [8]: 104% | normalised response [9]: 115% | normalised response [10]: 120% | normalised response [11]: 80.4% | normalised response [12]: 115% | normalised response [13]: 123% | normalised response [14]: 103% | normalised response [15]: 108% | normalised response [16]: 103% | normalised response [17]: 107% | normalised response [18]: 79.5% | normalised response [19]: 98.5% | normalised response [20]: 101% | normalised response [21]: 90.7% | normalised response [22]: 90.7% | normalised response [23]: 99% | normalised response [24]: 101% | normalised response [25]: 102% | normalised response [26]: 112% | normalised response [27]: 118% | normalised response [28]: 93.2% | normalised response [29]: 46.3% | normalised response [30]: 101% | normalised response [31]: 91.8% | normalised response [32]: 99.8% | normalised response [33]: 97.4% | normalised response [34]: 87.4% | normalised response [35]: 68.9% | normalised response [36]: 99.4% | normalised response [37]: 18.5%

O=S(=O)(c1cccc2cnccc12)N1CCCNCC1 [Fasudil] (5000 nM)
normalised response [1]: 94.8% | normalised response [2]: 98.2% | normalised response [3]: 95.3% | normalised response [4]: 100% | normalised response [5]: 97.1% | normalised response [6]: 97.6% | normalised response [7]: 99% | normalised response [8]: 103% | normalised response [9]: 83.4% | normalised response [10]: 102% | normalised response [11]: 110% | normalised response [12]: 75.7% | normalised response [13]: 98.9% | normalised response [14]: 66% | normalised response [15]: 109% | normalised response [16]: 99.9% | normalised response [17]: 94.5% | normalised response [18]: 70.9% | normalised response [19]: 102% | normalised response [20]: 97.1% | normalised response [21]: 113% | normalised response [22]: 95.7% | normalised response [23]: 96.5% | normalised response [24]: 106% | normalised response [25]: 96.8% | normalised response [26]: 101% | normalised response [27]: 89% | normalised response [28]: 122% | normalised response [29]: 94.9% | normalised response [30]: 101% | normalised response [31]: 96.3% | normalised response [32]: 107% | normalised response [33]: 99.7% | normalised response [34]: 105% | normalised response [35]: 95.9% | normalised response [36]: 89.4% | normalised response [37]: 105%

Cc1cccc(-c2nn3c(c2-c2ccnc4ccc(C(N)=O)cc24)CCC3)n1 [Galunisertib] (100 nM)
normalised response [1]: 98.5% | normalised response [2]: 108% | normalised response [3]: 105% | normalised response [4]: 114% | normalised response [5]: 102% | normalised response [6]: 120% | normalised response [7]: 107% | normalised response [8]: 109% | normalised response [9]: 59.8% | normalised response [10]: 102% | normalised response [11]: 112% | normalised response [12]: 70.6% | normalised response [13]: 112% | normalised response [14]: 87.6% | normalised response [15]: 93.8% | normalised response [16]: 121% | normalised response [17]: 101% | normalised response [18]: 170% | normalised response [19]: 107% | normalised response [20]: 101% | normalised response [21]: 110% | normalised response [22]: 105% | normalised response [23]: 104% | normalised response [24]: 108% | normalised response [25]: 104% | normalised response [26]: 109% | normalised response [27]: 109% | normalised response [28]: 104% | normalised response [29]: 88.5% | normalised response [30]: 101% | normalised response [31]: 109% | normalised response [32]: 105% | normalised response [33]: 91.6% | normalised response [34]: 104% | normalised response [35]: 94.3% | normalised response [36]: 104% | normalised response [37]: 107%

O=C(NC[C@H](O)CO)c1ccncc1Nc1ccc(I)cc1F [Pimasertib] (1000 nM)
normalised response [1]: 100% | normalised response [2]: 105% | normalised response [3]: 56.7% | normalised response [4]: 107% | normalised response [5]: 78.8% | normalised response [6]: 63.2% | normalised response [7]: 62.6% | normalised response [8]: 111% | normalised response [9]: 106% | normalised response [10]: 67.4% | normalised response [11]: 93.7% | normalised response [12]: 77.2% | normalised response [13]: 89.5% | normalised response [14]: 103% | normalised response [15]: 109% | normalised response [16]: 142% | normalised response [17]: 83.4% | normalised response [18]: 150% | normalised response [19]: 94% | normalised response [20]: 83.5% | normalised response [21]: 95.5% | normalised response [22]: 105% | normalised response [23]: 69.8% | normalised response [24]: 72.1% | normalised response [25]: 0.43% | normalised response [26]: 91.6% | normalised response [27]: 31.2% | normalised response [28]: 61.9% | normalised response [29]: 73% | normalised response [30]: 62.1% | normalised response [31]: 84.2% | normalised response [32]: 86.1% | normalised response [33]: 86.2% | normalised response [34]: 84.3% | normalised response [35]: 96.1% | normalised response [36]: 73.6% | normalised response [37]: 87.4%

Cn1cc(CNCC2CCN(c3ncc(C(=O)NO)cn3)CC2)c2ccccc21 [Quisinostat] (100 nM)
normalised response [1]: 72.8% | normalised response [2]: 23.7% | normalised response [3]: 87.5% | normalised response [4]: 89% | normalised response [5]: 45.6% | normalised response [6]: 29.6% | normalised response [7]: 82.1% | normalised response [8]: 86.8% | normalised response [9]: 97.8% | normalised response [10]: -5.42% | normalised response [11]: 58.5% | normalised response [12]: -19.4% | normalised response [13]: 86.2% | normalised response [14]: 38.8% | normalised response [15]: 80% | normalised response [16]: 92.3% | normalised response [17]: 34.5% | normalised response [18]: 43.3% | normalised response [19]: 52.5% | normalised response [20]: 8.89% | normalised response [21]: 55.3% | normalised response [22]: 2.02% | normalised response [23]: 25.3% | normalised response [24]: 30% | normalised response [25]: 23.2% | normalised response [26]: 42.1% | normalised response [27]: 51.6% | normalised response [28]: 29.5% | normalised response [29]: 40.5% | normalised response [30]: 58.4% | normalised response [31]: 25.4% | normalised response [32]: 14.9% | normalised response [33]: 37.2% | normalised response [34]: 64.7% | normalised response [35]: 46.1% | normalised response [36]: 44.5% | normalised response [37]: 34.5%
